These results are taken from article PMC7616174, “Development of Novel 4-Arylpyridin-2-one and 6-Arylpyrimidin-4-one Positive Allosteric Modulators of the M1 Muscarinic Acetylcholine Receptor” (ChemMedChem, 2020).

By Kp is commonly meant the ratio of the level in a tissue or fluid to that in plasma or blood.

Series [1] deals with T1, M1 mAChR (Homo sapiens, UniProt P11229).
T1 construct: expressed in transfected cells; host or cells: parental FlpIn CHO cells (transient, PEI)
T1 sequence (P11229 1-460): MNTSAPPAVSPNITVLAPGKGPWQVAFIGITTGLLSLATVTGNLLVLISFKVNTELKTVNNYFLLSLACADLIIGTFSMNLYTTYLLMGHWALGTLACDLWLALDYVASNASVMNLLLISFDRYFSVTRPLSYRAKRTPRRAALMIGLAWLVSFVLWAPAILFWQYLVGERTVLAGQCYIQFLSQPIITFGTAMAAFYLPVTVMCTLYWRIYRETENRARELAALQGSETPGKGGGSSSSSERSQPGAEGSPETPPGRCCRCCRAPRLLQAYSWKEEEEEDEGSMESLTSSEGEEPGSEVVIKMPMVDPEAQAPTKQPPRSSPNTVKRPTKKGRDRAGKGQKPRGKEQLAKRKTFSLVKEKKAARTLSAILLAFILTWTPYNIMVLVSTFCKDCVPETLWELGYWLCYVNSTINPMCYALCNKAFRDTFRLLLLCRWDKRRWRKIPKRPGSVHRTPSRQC
Details: method as in PMID 24051397. Particulars: ref 10a; cited from earlier work.

In series [2] the target is T1, M1 mAChR. As to the kind of experiment: β-arrestin 2 recruitment assay (BRET). The settings on record: for αβ (functional cooperativity with ACh) / τB (intrinsic efficacy of the modulator): antilog, in parentheses; for log τB (logarithm of intrinsic efficacy of the modulator) / log αβ (logarithm of functional cooperativity between ACh and modulator): operational model; for log αβ (logarithm of functional cooperativity between ACh and modulator): pKB constrained to binding value. Type of series: cell-based. The source says: The compounds were then fully characterised in two functional assays (Figure 2C and D); the Gq-coupled IP1 accumulation assay (Figure S2), which was used for the initial screening of the compounds, and a β-arrestin 2 recruitment assay (Figure S3). The operational efficacy (τB) values for the modulators and their functional cooperativity estimates with ACh (logαβACh) at both signalling pathways were estimated by applying an operational model of allosterism and agonism to the data [Eq. (3)],[16] and are listed in Table 5.
Parental FlpIn CHO cells were plated at 30000 cells/well of 96-well white Culture plates (Perkin Elmer Life Sciences) and transiently transfected with 10 ng/well of M1 Renilla luciferase (Rluc)-8 and 40 ng/well of YFP-β-arrestin 2 using linear polyethyleneimine (PEI/DNA ratio 6:1) diluted in 150 mM NaCl. DNA:PEI complexes were formed by 15 min incubation at room temperature then added to the cells and incubated at 37°C for 24 h prior to use. Cells were then washed and equilibrated in Hanks’ balanced salt solution for 1 h at 37°C. Coelenterazine h at a final concentration of 5 μM was added to each well, followed by addition of increasing concentrations of ACh in the absence or presence of increasing concentrations of each modulator. Lumines-cence and fluorescence signals were measured 5 min after agonist stimulation using the LUMIstar Omega plate reader (BMG LabTech, Offenburg, Germany). […] Data were then normalized to the maximum response to ACh.
Functional interaction studies between ACh and allosteric modulators in IP1 and β-arrestin 2 recruitment assays were analysed according to a three-parameter logistic equation or the following operational model of allosterism and agonism [Eq. (3)].[16] E=Basal+(Em−Basal)([A](KB+αβ[B])+τB[B]EC50)^n/EC50n(KB+[B])^n+([A](KB+αβ[B])+τB[B]EC50)^n where Em is the maximal possible system response, and Basal is the response in the absence of agonist. [A] and [B] are concentrations of orthosteric and allosteric ligands, respectively. KB is the equilibrium dissociation constant of allosteric ligand, and EC50 is the concentration of orthosteric agonist required to achieve half maximal response. α and β represent the magnitude of the allosteric effects on orthosteric ligand affinity and efficacy, respectively; τB is the efficacy of allosteric ligand, and n is the slope factor of the transducer function that links occupancy to response.
(In general: Arrestin recruitment assays detect the binding of arrestin to an activated receptor.)

The nature of the next series: in vivo. The settings on record: male, C57Bl/6 J, mouse, 10 mg/kg.
The target of a further series is T2, hM1 mAChR (Homo sapiens, UniProt P11229).
T2 construct: expressed in transfected cells
T2 sequence (P11229 1-460): T1 sequence (P11229 1-460)
As to the kind of experiment: Whole-cell [3H]NMS equilibrium competition radioligand binding. The settings on record: [3H]NMS binding; for α (binding cooperativity with ACh): antilog. As to the method: To determine the affinity (pKB) of the allosteric modulators for the allosteric site, and their binding cooperativity with ACh (log αACh) at the M1 mAChR, whole cell equilibrium competition binding studies were performed, using [^3H]NMS to label the orthosteric site.
FlpIn Chinese hamster ovary (CHO) cells stably expressing the hM1 mAChR were grown in Dulbecco’s modified Eagle’s medium (DMEM) (Invitrogen, Carlsbad, CA) supplemented with 5% foetal bovine serum (FBS) (Thermo-Trace, Melbourne, Australia) and 300 μg/mL G418 (Invitrogen, Carlsbad, CA). The cells were plated at 50,000 cells per well of 96-well white clear bottom plates (Greiner Bio-one, Kremsmünster, Austria), and were grown overnight. The following day, cells were washed twice with Phosphate Buffered Saline (PBS), and incubated with increasing concentrations of ACh (Sigma) in the absence or presence of increasing concentrations of each modulator and 0.2 nM [^3H]NMS (PerkinElmer Life Sciences) in binding buffer (20 mM HEPES, 100 mM NaCl, 10 mM MgCl2, pH 7.4) for 5 h at room temperature. Nonspecific binding was determined using atropine at the final concentration of 10 μM. The assays were terminated by rapid removal of the unbound radioligand followed by two washes with 100 μL/well ice-cold 0.9% NaCl buffer. Radioactivity was determined by addition of 100 μL/well Ultima gold (PerkinElmer Life Sciences) and counting in a MicroBeta plate reader (PerkinElmer Life Sciences).
Binding interaction studies with allosteric ligands were fitted to the following allosteric ternary complex model [Eq. (2)][15] Y=Bmax|A|/[Λ]+[KAKB/α^′[B]+KB][1+[I]/K1+[B]/KB+α[I][B]/KIKB] where Bmax is the total number of receptors, [A], [B] and [I] denote the concentrations of radioligand, allosteric modulator, and orthosteric ligand, respectively; KA, KB and KI are their respective equilibrium dissociation constants. α’ and α are the affinity cooperativity factors between the allosteric ligand and radioligand or the allosteric modulator and ACh, respectively. Values of α or α’ > 1 denote positive cooperativity, values < 1 but > 0 denote negative cooperativity, and a value of 1 indicates neutral coopera-tivity.

Where [3] appears, read: allosteric ternary complex model, mean ± SEM, read-out: pKB (negative logarithm of the allosteric modulator equilibrium dissociation constant) (converted).

Where two headings read alike, the source gives them in different places. A value given as a limit tells only on which side of the number the result lay.

Method for in vivo: The study was performed using 10–12 weeks old male C57Bl/6 J naïve mice in accordance with the Australian Code of Practice for the Care and Use of Animals for Scientific Purposes, with procedures approved by the Animal Ethics Committee of the Monash Institute of Pharmaceutical Sciences.

As for `Cn1cc(-c2ccc(COc3ccccc3-c3cc(=O)n(C4CCCCC4O)cn3)cc2)cn1` (stereo not drawn) [Compound 2, 3-(2-Hydroxycyclohexyl)-6-(2-((4-(1-methyl-1H-pyrazol-4-yl)benzyl)oxy)phenyl)pyrimidin-4(3H)-one], on M1 mAChR [1], the “increase in binding cooperativity with ACh (αACh) compared to MIPS1650 (1)” value is listed as “fourfold increase” and the “increase in intrinsic efficacy (τB) compared to MIPS1650 (1)” value was 11 fold. Also, at M1 mAChR [2], the “αβ (functional cooperativity with ACh)” value is 63; the “τB (intrinsic efficacy of the modulator)” value worked out at 2; the “log τB (logarithm of intrinsic efficacy of the modulator)” value (“log τB” below) was 0.37±0.11; the “log αβ (logarithm of functional cooperativity between ACh and modulator)” value (“log αβ” below) is listed as 1.80±0.35. In “in vivo” (brain/plasma, ip), the Kp was below 0.1 and the Kp uu is below 0.1. In addition, on hM1 mAChR (KB, antilog of pKB, in parentheses), the Kb is 3 µM. At hM1 mAChR (in parentheses), the “α (binding cooperativity with ACh)” value was 240. Further, the “log αACh (logarithm of binding cooperativity between ACh and modulator)” value (from here on “log αACh”) on hM1 mAChR (mean ± SEM) amounted to 2.38±0.13. At hM1 mAChR (pKB (negative logarithm of the allosteric modulator equilibrium dissociation constant), allosteric ternary complex model, mean ± SEM), this compound showed a Kb of 3.16 µM.

For the compound `Cn1cc(-c2ccc(COc3ncccc3-c3ccn(C4CCCCC4O)c(=O)c3)cc2)cn1` (stereo not drawn) [Compound 7f, 1’-(2-Hydroxycyclohexyl)-2-((4-(1-methyl-1H-pyrazol-4-yl)benzyl)oxy)-[3,4’-bipyridin]-2’(1’H)-one], at M1 mAChR [2], the “αβ (functional cooperativity with ACh)” value amounted to 81; the “τB (intrinsic efficacy of the modulator)” value was 2; the “log τB” value was determined as 0.23±0.08; the “log αβ” value came to 1.91±0.10. The compound further registered a concentration at 90 min in “in vivo” (brain, intraperitoneal) of 100 nM. At hM1 mAChR (setting [3]), the Kb was 38 µM. Moreover, on hM1 mAChR (in parentheses), the “α (binding cooperativity with ACh)” value is listed as 240. Besides, the “log αACh” value on hM1 mAChR (mean ± SEM) turned out to be 2.38±0.39.

For `CN(C)C(=O)Cn1ccc(-c2ccccc2OCc2ccc(-c3cnn(C)c3)cc2)cc1=O` [Compound 13c, N,N-Dimethyl-2-(4-(2-((4-(1-methyl-1H-pyrazol-4-yl)benzyl)oxy)phenyl)-2-oxopyridin-1(2H)-yl)acetamide], on M1 mAChR [2], the “αβ (functional cooperativity with ACh)” value was 55; the “τB (intrinsic efficacy of the modulator)” value came out at 1; the “log τB” value is on record as “–0.01±0.06”; the “log αβ” value is 1.74±0.11. Further, the Kb on hM1 mAChR (setting [3]) was 16.6 µM. Further, on hM1 mAChR (in parentheses), the “α (binding cooperativity with ACh)” value came out at 72. In addition, the “log αACh” value on hM1 mAChR (mean ± SEM) is on record as 1.86±0.28.
